Experimental data published in the NIST ThermoML archive (doi:10.1021/je5007218).
Numbers after ± are expanded uncertainties.

Experiment: refractive index (Na D-line) (dimensionless)
Conditions: 293.15 K; 101.33 kPa; Liquid; Standard Abbe refractometry

| refractive index | SMILES |
| --- | --- |
| 1.39563 ± 0.0004 | CC(C)CO [2-methyl-1-propanol] |
| 1.34386 ± 0.00035 | CC#N [acetonitrile] |
| 1.39928 ± 0.0004 | CCCCO [butan-1-ol] |
| 1.33299 ± 0.00035 | O [water] |
